ChEMBL document CHEMBL3991601, “The target landscape of clinical kinase drugs” (Science, 2017)
Calls of active or inactive are those of the source. Rule as the data show it, for most assays here: actives have a measured Kd and inactives only a lower limit.

Target: AP2-associated protein kinase 1 (Homo sapiens, UniProt Q2M2I8)
Also: in the data inactive means no Kd found up to 30 µM.

Chain of AP2-associated protein kinase 1 (Q2M2I8 whole entry): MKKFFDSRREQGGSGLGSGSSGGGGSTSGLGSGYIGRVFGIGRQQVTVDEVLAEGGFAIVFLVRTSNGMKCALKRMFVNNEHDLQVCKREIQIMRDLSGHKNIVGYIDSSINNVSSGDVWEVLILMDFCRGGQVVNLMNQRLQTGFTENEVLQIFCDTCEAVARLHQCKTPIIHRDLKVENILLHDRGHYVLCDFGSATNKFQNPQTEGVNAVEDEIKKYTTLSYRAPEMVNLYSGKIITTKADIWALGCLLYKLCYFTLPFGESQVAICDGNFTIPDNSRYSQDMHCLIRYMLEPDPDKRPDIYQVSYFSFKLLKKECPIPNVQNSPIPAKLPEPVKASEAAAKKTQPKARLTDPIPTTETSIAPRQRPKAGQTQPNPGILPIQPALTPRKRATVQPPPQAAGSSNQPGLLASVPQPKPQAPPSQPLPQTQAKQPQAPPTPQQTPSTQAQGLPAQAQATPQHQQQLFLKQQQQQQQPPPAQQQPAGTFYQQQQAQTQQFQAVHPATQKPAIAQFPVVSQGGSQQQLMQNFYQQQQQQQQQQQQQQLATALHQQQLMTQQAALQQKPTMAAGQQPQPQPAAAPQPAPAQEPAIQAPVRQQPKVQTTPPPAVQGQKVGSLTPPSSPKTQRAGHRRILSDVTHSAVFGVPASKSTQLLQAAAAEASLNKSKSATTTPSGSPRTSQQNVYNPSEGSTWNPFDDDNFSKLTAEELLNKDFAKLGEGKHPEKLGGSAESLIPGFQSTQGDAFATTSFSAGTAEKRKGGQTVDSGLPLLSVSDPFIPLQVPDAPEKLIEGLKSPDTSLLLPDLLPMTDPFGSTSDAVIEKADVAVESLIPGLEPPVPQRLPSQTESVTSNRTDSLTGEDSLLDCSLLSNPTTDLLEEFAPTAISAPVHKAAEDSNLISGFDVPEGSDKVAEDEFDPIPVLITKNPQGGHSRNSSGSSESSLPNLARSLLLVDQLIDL

Row | SMILES | Kd
1 | CC[C@@H]1C(=O)N(C)c2cnc(Nc3ccc(C(=O)N[C@H]4CC[C@H](N5CCN(CC6CC6)CC5)CC4)cc3OC)nc2N1C(C)C [VOLASERTIB] | > 30 µM (inactive)
2 | CCn1c(=O)c(-c2cc[nH]n2)cc2c(C)nc(N)nc21 [VOXTALISIB] | > 30 µM (inactive)
3 | O=C(Nc1ccc(-c2ccnc(Nc3ccc(N4CCOCC4)cc3)n2)cc1)C1CCCN1 (stereo not given) [XL-019] | 0.006 µM (active)

Target: Mitogen-activated protein kinase 10 (Homo sapiens, UniProt P53779)
Sequence (P53779 whole entry): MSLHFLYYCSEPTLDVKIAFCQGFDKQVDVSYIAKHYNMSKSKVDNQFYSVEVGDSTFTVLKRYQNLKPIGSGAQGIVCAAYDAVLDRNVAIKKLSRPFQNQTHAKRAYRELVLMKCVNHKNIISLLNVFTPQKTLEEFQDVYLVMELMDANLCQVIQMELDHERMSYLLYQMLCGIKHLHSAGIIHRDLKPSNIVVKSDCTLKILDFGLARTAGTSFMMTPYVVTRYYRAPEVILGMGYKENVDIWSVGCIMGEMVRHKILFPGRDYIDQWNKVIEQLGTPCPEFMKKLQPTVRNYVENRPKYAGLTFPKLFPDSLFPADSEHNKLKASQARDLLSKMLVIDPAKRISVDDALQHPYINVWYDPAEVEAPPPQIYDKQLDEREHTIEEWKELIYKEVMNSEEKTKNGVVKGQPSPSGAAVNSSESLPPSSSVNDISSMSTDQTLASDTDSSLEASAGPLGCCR

Row | SMILES | Kd
4 | CC[C@@H]1C(=O)N(C)c2cnc(Nc3ccc(C(=O)N[C@H]4CC[C@H](N5CCN(CC6CC6)CC5)CC4)cc3OC)nc2N1C(C)C [VOLASERTIB] | > 30 µM (inactive)
5 | CCn1c(=O)c(-c2cc[nH]n2)cc2c(C)nc(N)nc21 [VOXTALISIB] | > 30 µM (inactive)
6 | O=C(Nc1ccc(-c2ccnc(Nc3ccc(N4CCOCC4)cc3)n2)cc1)C1CCCN1 (stereo not given) [XL-019] | > 30 µM (inactive)

Target: cAMP-dependent protein kinase type II-alpha regulatory subunit (Homo sapiens, UniProt P13861)
Sequence (P13861 whole entry): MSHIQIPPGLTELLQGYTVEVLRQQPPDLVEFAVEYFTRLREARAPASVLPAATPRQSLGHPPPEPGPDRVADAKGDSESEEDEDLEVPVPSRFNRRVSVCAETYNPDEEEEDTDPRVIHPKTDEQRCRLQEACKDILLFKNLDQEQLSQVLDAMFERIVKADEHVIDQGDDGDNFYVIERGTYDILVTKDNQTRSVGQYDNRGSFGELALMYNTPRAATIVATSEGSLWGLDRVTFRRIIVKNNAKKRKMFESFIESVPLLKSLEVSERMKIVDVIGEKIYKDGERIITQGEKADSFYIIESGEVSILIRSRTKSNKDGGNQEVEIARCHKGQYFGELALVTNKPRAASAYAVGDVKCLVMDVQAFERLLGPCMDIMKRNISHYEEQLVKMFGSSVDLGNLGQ

Row | SMILES | Kd
7 | CC[C@@H]1C(=O)N(C)c2cnc(Nc3ccc(C(=O)N[C@H]4CC[C@H](N5CCN(CC6CC6)CC5)CC4)cc3OC)nc2N1C(C)C [VOLASERTIB] | > 30 µM (inactive)
8 | CCn1c(=O)c(-c2cc[nH]n2)cc2c(C)nc(N)nc21 [VOXTALISIB] | > 30 µM (inactive)
9 | O=C(Nc1ccc(-c2ccnc(Nc3ccc(N4CCOCC4)cc3)n2)cc1)C1CCCN1 (stereo not given) [XL-019] | > 30 µM (inactive)

Target: T1, Glycogen phosphorylase, brain form (Homo sapiens, UniProt P11216)
T1 sequence (P11216 whole entry): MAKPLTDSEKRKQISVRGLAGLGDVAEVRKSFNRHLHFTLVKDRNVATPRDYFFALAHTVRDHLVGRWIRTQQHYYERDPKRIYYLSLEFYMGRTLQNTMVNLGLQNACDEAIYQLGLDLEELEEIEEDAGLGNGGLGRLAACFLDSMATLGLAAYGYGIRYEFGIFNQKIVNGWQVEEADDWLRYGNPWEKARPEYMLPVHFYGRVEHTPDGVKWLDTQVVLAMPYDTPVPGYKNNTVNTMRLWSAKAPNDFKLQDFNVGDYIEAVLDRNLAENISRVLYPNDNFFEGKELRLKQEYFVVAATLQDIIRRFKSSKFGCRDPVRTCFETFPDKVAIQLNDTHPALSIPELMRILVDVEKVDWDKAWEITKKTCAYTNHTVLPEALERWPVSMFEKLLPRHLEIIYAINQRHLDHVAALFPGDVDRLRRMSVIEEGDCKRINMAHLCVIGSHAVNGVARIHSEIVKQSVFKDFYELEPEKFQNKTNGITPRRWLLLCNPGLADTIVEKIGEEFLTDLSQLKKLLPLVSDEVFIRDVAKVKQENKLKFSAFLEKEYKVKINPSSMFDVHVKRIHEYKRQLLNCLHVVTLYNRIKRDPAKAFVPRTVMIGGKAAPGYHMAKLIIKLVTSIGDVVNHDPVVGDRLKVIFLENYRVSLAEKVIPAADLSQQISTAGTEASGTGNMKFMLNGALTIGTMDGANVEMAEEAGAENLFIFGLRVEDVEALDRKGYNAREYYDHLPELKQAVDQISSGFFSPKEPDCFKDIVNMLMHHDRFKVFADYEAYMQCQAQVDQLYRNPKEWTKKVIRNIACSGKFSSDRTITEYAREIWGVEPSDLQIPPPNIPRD

Row | SMILES | Kd
10 | CC[C@@H]1C(=O)N(C)c2cnc(Nc3ccc(C(=O)N[C@H]4CC[C@H](N5CCN(CC6CC6)CC5)CC4)cc3OC)nc2N1C(C)C [VOLASERTIB] | > 30 µM (inactive)
11 | CCn1c(=O)c(-c2cc[nH]n2)cc2c(C)nc(N)nc21 [VOXTALISIB] | > 30 µM (inactive)
12 | O=C(Nc1ccc(-c2ccnc(Nc3ccc(N4CCOCC4)cc3)n2)cc1)C1CCCN1 (stereo not given) [XL-019] | > 30 µM (inactive)

Target: T2, Serine/threonine-protein kinase TAO2 (Homo sapiens, UniProt Q9UL54)
T2 sequence (Q9UL54 whole entry): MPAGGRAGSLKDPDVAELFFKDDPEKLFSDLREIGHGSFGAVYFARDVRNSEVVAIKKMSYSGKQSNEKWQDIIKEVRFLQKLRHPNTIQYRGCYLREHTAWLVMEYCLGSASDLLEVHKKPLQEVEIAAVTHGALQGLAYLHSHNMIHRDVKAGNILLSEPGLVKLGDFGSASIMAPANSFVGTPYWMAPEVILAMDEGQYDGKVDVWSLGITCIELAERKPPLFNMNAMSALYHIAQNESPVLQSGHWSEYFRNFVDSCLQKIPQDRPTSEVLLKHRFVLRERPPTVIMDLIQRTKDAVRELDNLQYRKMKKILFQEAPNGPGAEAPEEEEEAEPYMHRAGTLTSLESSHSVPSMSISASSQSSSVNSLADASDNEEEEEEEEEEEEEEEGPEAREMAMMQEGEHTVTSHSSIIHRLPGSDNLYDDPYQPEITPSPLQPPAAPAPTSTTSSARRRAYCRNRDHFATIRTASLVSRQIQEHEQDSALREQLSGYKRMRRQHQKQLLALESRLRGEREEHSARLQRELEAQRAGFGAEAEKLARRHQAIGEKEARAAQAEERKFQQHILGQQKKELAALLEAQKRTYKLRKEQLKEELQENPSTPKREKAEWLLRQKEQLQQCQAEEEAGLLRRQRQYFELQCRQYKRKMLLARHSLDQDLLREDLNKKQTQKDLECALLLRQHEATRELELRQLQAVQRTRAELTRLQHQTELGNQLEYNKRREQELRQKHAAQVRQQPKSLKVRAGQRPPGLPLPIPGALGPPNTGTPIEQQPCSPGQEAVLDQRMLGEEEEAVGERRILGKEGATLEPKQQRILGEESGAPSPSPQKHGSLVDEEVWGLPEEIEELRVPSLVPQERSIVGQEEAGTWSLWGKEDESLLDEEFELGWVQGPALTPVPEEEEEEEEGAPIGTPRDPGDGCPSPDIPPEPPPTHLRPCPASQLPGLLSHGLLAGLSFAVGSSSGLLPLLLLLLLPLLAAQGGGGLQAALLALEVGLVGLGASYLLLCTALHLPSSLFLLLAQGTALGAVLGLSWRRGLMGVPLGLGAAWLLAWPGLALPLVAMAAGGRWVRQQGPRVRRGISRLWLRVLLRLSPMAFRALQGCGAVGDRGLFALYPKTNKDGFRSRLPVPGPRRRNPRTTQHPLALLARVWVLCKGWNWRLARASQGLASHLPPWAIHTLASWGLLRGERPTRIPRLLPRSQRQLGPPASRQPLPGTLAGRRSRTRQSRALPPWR

Row | SMILES | Kd
13 | CC[C@@H]1C(=O)N(C)c2cnc(Nc3ccc(C(=O)N[C@H]4CC[C@H](N5CCN(CC6CC6)CC5)CC4)cc3OC)nc2N1C(C)C [VOLASERTIB] | > 30 µM (inactive)
14 | CCn1c(=O)c(-c2cc[nH]n2)cc2c(C)nc(N)nc21 [VOXTALISIB] | > 30 µM (inactive)
15 | O=C(Nc1ccc(-c2ccnc(Nc3ccc(N4CCOCC4)cc3)n2)cc1)C1CCCN1 (stereo not given) [XL-019] | > 30 µM (inactive)
